Source: patent US11331271B2, “Buccal, sublingual and intranasal delivery of fospropofol” (The Johns Hopkins University, priority 2016, dated 2022)

System: healthy male volunteers
Assay: Human Study 1: treatment-emergent adverse events (TEAE), safety, Modified OAA/S
Format: in vivo
Experimental: In human study 1, fospropofol disodium was formulated as a sterile aqueous solution at a concentration of 20 mg/mL. Each vial provided contained 20 mL of solution, suitable for intravenous injection. Fospropofol was administered as a single dose of 400 mg orally, directly into the duodenum by gastroscopy or intravenously over 10 min. In human study 2, fospropofol disodium in capsules (200 mg) or matching placebo was administered orally.
The first study was an absolute bioavailability study of fospropofol conducted at a single center (PRA Health Sciences) in Groningen, Netherlands, as a three-way crossover study. The study enrolled 7 healthy male volunteers between 18 and 45 years of age inclusive, with a body mass index between 18 and 28 kg/m^2. Subjects stayed in the clinical unit for three consecutive periods of 3 days each, with a 3-day washout, between periods. For six subjects, the order of the administration routes was as follows—period 1: PO, period 2: ID, and period 3: IV. For one subject the order of the administration routes was the following—period 1: ID, period 2: IV and period 3: PO. In this study a single dose of 400 mg was administered by each route. Blinding and placebo control was impractical due to the requirement of unsedated endoscopic administration of fospropofol into the duodenum. Safety and overall pharmacodynamic effect was evaluated based on adverse events, vital signs, electrocardiogram (ECG), Modified Observer's Assessment of Alertness/Sedation (OAA/S) score, clinical laboratory tests, and physical examination.

SMILES: CC(C)c1cccc(C(C)C)c1OCOP(=O)(O)O [fospropofol]
- TEAE GASTROINTESTINAL DISORDERS, events (E) (400 mg ID): 1
- TEAE GASTROINTESTINAL DISORDERS, subjects (%) (400 mg ID): 14%
- TEAE GENERAL DISORDERS AND ADMINISTRATION SITE CONDITIONS, events (E) (400 mg ID): 3
- TEAE GENERAL DISORDERS AND ADMINISTRATION SITE CONDITIONS, subjects (%) (400 mg ID): 43%
- TEAE INFECTIONS AND INFESTATIONS, events (E) (400 mg ID): 1
- TEAE INFECTIONS AND INFESTATIONS, subjects (%) (400 mg ID): 14%
- TEAE NERVOUS SYSTEM DISORDERS, events (E) (400 mg ID): 3
- TEAE NERVOUS SYSTEM DISORDERS, subjects (%) (400 mg ID): 43%
- TEAE SKIN AND SUBCUTANEOUS TISSUE DISORDERS, events (E) (400 mg ID): 1
- TEAE SKIN AND SUBCUTANEOUS TISSUE DISORDERS, subjects (%) (400 mg ID): 14%
- TEAE TOTAL, events (E) (400 mg ID): 9
- TEAE TOTAL, subjects (%) (400 mg ID): 86%
- TEAE dizziness, events (E) (400 mg ID): 1
- TEAE dizziness, subjects (%) (400 mg ID): 14%
- TEAE fatigue, events (E) (400 mg ID): 2
- TEAE fatigue, subjects (%) (400 mg ID): 29%
- TEAE flatulence, events (E) (400 mg ID): 1
- TEAE flatulence, subjects (%) (400 mg ID): 14%
- TEAE herpes simplex, events (E) (400 mg ID): 1
- TEAE herpes simplex, subjects (%) (400 mg ID): 14%
- TEAE rash, events (E) (400 mg ID): 1
- TEAE rash, subjects (%) (400 mg ID): 14%
- TEAE somnolence, events (E) (400 mg ID): 2
- TEAE somnolence, subjects (%) (400 mg ID): 29%
- TEAE subrapubic pain, events (E) (400 mg ID): 1
- TEAE subrapubic pain, subjects (%) (400 mg ID): 14%
- subjects with Modified OAA/S score of 4 (400 mg ID): 43%
- subjects with Modified OAA/S score of 4 (n of 7) (400 mg ID): Three
- TEAE BLOOD AND LYMPHATIC SYSTEM DISORDERS, events (E) (400 mg IV): 1
- TEAE BLOOD AND LYMPHATIC SYSTEM DISORDERS, subjects (%) (400 mg IV): 14%
- TEAE EYE DISORDERS, events (E) (400 mg IV): 5
- TEAE EYE DISORDERS, subjects (%) (400 mg IV): 71%
- TEAE GASTROINTESTINAL DISORDERS, events (E) (400 mg IV): 4
- TEAE GASTROINTESTINAL DISORDERS, subjects (%) (400 mg IV): 43%
- TEAE GENERAL DISORDERS AND ADMINISTRATION SITE CONDITIONS, events (E) (400 mg IV): 9
- TEAE GENERAL DISORDERS AND ADMINISTRATION SITE CONDITIONS, subjects (%) (400 mg IV): 57%
- TEAE MUSCULOSKELETAL AND CONNECTIVE TISSUE DISORDERS, events (E) (400 mg IV): 2
- TEAE MUSCULOSKELETAL AND CONNECTIVE TISSUE DISORDERS, subjects (%) (400 mg IV): 29%
- TEAE NERVOUS SYSTEM DISORDERS, events (E) (400 mg IV): 31
- TEAE NERVOUS SYSTEM DISORDERS, subjects (%) (400 mg IV): 100%
- TEAE PSYCHIATRIC DISORDERS, events (E) (400 mg IV): 2
- TEAE PSYCHIATRIC DISORDERS, subjects (%) (400 mg IV): 29%
- TEAE REPRODUCTVE SYSTEM AND BREAST DISORDERS, events (E) (400 mg IV): 1
- TEAE REPRODUCTVE SYSTEM AND BREAST DISORDERS, subjects (%) (400 mg IV): 14%
- TEAE SKIN AND SUBCUTANEOUS TISSUE DISORDERS, events (E) (400 mg IV): 1
- TEAE SKIN AND SUBCUTANEOUS TISSUE DISORDERS, subjects (%) (400 mg IV): 14%
- TEAE TOTAL, events (E) (400 mg IV): 56
- TEAE TOTAL, subjects (%) (400 mg IV): 100%
- TEAE burning sensation, events (E) (400 mg IV): 6
- TEAE burning sensation, subjects (%) (400 mg IV): 43%
- TEAE catheter site pain, events (E) (400 mg IV): 1
- TEAE catheter site pain, subjects (%) (400 mg IV): 14%
- TEAE diplopia, events (E) (400 mg IV): 1
- TEAE diplopia, subjects (%) (400 mg IV): 14%
- TEAE disorientation, events (E) (400 mg IV): 1
- TEAE disorientation, subjects (%) (400 mg IV): 14%
- TEAE dizziness postural, events (E) (400 mg IV): 1
- TEAE dizziness postural, subjects (%) (400 mg IV): 14%
- TEAE dizziness, events (E) (400 mg IV): 3
- TEAE dizziness, subjects (%) (400 mg IV): 43%
- TEAE dry mouth, events (E) (400 mg IV): 1
- TEAE dry mouth, subjects (%) (400 mg IV): 14%
- TEAE dyspepsia, events (E) (400 mg IV): 1
- TEAE dyspepsia, subjects (%) (400 mg IV): 14%
- TEAE ecchymosis, events (E) (400 mg IV): 1
- TEAE ecchymosis, subjects (%) (400 mg IV): 14%
- TEAE euphoric mood, events (E) (400 mg IV): 1
- TEAE euphoric mood, subjects (%) (400 mg IV): 14%
- TEAE fatigue, events (E) (400 mg IV): 2
- TEAE fatigue, subjects (%) (400 mg IV): 29%
- TEAE feeling abnormal, events (E) (400 mg IV): 1
- TEAE feeling abnormal, subjects (%) (400 mg IV): 14%
- TEAE feeling cold, events (E) (400 mg IV): 1
- TEAE feeling cold, subjects (%) (400 mg IV): 14%
- TEAE feeling drunk, events (E) (400 mg IV): 1
- TEAE feeling drunk, subjects (%) (400 mg IV): 14%
- TEAE genital pruritis male, events (E) (400 mg IV): 1
- TEAE genital pruritis male, subjects (%) (400 mg IV): 14%
- TEAE lymph node pain, events (E) (400 mg IV): 1
- TEAE lymph node pain, subjects (%) (400 mg IV): 14%
- TEAE muscle fatigue, events (E) (400 mg IV): 2
- TEAE muscle fatigue, subjects (%) (400 mg IV): 29%
- TEAE nausea, events (E) (400 mg IV): 1
- TEAE nausea, subjects (%) (400 mg IV): 14%
- TEAE paresthesia, events (E) (400 mg IV): 9
- TEAE paresthesia, subjects (%) (400 mg IV): 86%
- TEAE proctalgia, events (E) (400 mg IV): 1
- TEAE proctalgia, subjects (%) (400 mg IV): 14%
- TEAE sluggishness, events (E) (400 mg IV): 3
- TEAE sluggishness, subjects (%) (400 mg IV): 43%
- TEAE somnolence, events (E) (400 mg IV): 5
- TEAE somnolence, subjects (%) (400 mg IV): 71%
- TEAE speech disorder, events (E) (400 mg IV): 6
- TEAE speech disorder, subjects (%) (400 mg IV): 86%
- TEAE tremor, events (E) (400 mg IV): 1
- TEAE tremor, subjects (%) (400 mg IV): 14%
- TEAE visual disturbance, events (E) (400 mg IV): 4
- TEAE visual disturbance, subjects (%) (400 mg IV): 54%
- subjects with Modified OAA/S score of 4 (400 mg IV): 57%
- subjects with Modified OAA/S score of 4 (n of 7) (400 mg IV): 4
- time to resolution of euphoria (400 mg IV, one subject): 34 min
- TEAE GASTROINTESTINAL DISORDERS, events (E) (400 mg PO): 1
- TEAE GASTROINTESTINAL DISORDERS, subjects (%) (400 mg PO): 14%
